What was measured:
[1] = Pharmacokinetic evaluation in plasma after single intravenous and single oral administration; assay type: in vivo; conditions: mouse, female Balb/c Nude mice
Procedure: Twelve mice (provided by Lingchang Biotech) were randomly divided into two groups, 6 females in each group, and samples were collected by cross blood collection. […] In the intravenous group, plasma samples were collected at 9 time points of 5 minutes, 15 minutes, 30 minutes, 1 hour, 2 hours, 4 hours, 6 hours, 8 hours, and 24 hours after administration; in the oral group, plasma samples were collected at 8 time points of 15 minutes, 30 minutes, 1 hour, 2 hours, 4 hours, 6 hours, 8 hours, and 24 hours after administration.

[2] = tested on: CT26 mouse colon cancer transplanted tumor; assay: In vivo anti-tumor efficacy, CT26 colon cancer transplanted tumor model; parameters: species or system BALB/c nude mice; conditions: 30 mg/kg twice daily, after administration for 18 days
Procedure: (3) In vivo anti-tumor efficacy of the compounds on CT26 mouse colon cancer animal transplanted tumor model
Experimental method: The selected experimental animal was BALB/c nude mice, 7 weeks old, weighing 16-20 grams, female.
Cells: Mouse colon cancer CT26 cells (the Cell Bank of Typical Culture Preservation Committee of the Chinese Academy of Sciences) were cultured in monolayer in vitro. The culture conditions were RPMI-1640 medium containing 10% fetal bovine serum and 37° C. 5% CO2 incubator. Conventional digestion treatment with trypsin-EDTA was performed twice a week for passaging. When the cells were in the exponential growth phase and the saturation was 80%-90%, the cells were collected, counted, and inoculated. 0.1 mL DPBS (containing 3×10^5 CT26 cells) was subcutaneously inoculated into the right back of each mouse. When the average tumor volume reached 50-70 mm^3, randomized administration was performed according to tumor volume. Dosage: 30 mg/kg twice daily.
(§1) The experimental index is to investigate whether the tumor growth is inhibited, delayed or cured. The diameter of the tumor was measured with vernier calipers twice a week. The antitumor efficacy of the compound was evaluated by TGI (%) or relative tumor proliferation rate T/C (%). TGI (%) reflects the tumor growth inhibition rate.
After the final administration for 18 days, the experimental results are as follows: […]

P-gp (MDR1) = assay: In vitro permeability test in MDR1-MDCK II cells (bidirectional transport); assay type: in vitro ADME, canine; conditions: dog
Excerpt: (§2) The study used MDR1-MDCK II cells authorized by Piet Borst laboratory of the Netherlands Cancer Institute, which are a kind of Madin-Darby canine kidney cells transfected with human multi-drug resistance gene (MDR1). The cells can stably express the efflux transporter P glycoprotein (P-gp), so they are suitable for screening P-gp substrates or inhibitors, and predict that the compounds have high efflux barrier permeability such as duodenum, blood-brain barrier, hepatocyte nucleus and renal unit. We used the 5th to 35th generation MDR1-MDCK II cells for permeability study.
(§3) MDR1-MDCK II cells were cultured with α-MEM medium (α-Minimum Essential Media) under the conditions of 37±1° C., 5% CO2 and saturated relative humidity. After that, the cells were inoculated in a BD Transwell-96-well plate with an inoculation density of 2.3×10^5 cells/cm^2, and then the cells were placed in a carbon dioxide incubator for 4-7 days and used for transport experiments. The preparation method of α-MEM medium was as follows: the liquid nutrient base was prepared by dissolving powder (α-MEM powder from Gibco, Cat #: 11900) in pure water, and L-glutamine and NaHCO3 were added. 10% FBS (fetal bovine serum), 1% PS (dual antibiotic) and 1% NEAA were added to make it a complete medium when using.
(§4) Fenoterol and propranolol were tested at a concentration of 2 μM, administered unidirectionally (A-B direction), and duplicated in two wells.
(§5) The solution to be used was pre-incubated in a 37±1° C. water bath for 30 minutes. The dosing solution and the receiving solution were added to the corresponding well positions of the cell plate (75 and 250 μL for each top and bottom well, respectively) to start the bidirectional transport experiment. After loading, the cell plates were placed in an incubator at 37±1° C., 5% CO2 and saturated relative humidity for 150 minutes.
(§6) After vortexing, all samples were centrifuged at 3,220 g for 10 minutes. An appropriate volume of supernatant was transferred to the sample analysis plate, and analyzed by LC/MS/MS. If samples were not analyzed immediately after sealing, they were store at 2-8° C.
(§7) After the transport experiment was completed, the integrity of MDR1-MDCK II cells was tested using Lucifer Yellow Rejection Assay. After incubating the fluorescent yellow solution for 30 minutes, the fluorescent yellow samples were collected, and the relative fluorescence unit (RFU) of the fluorescent yellow in the sample was detected at 425/528 nm (excitation/emission) by the 2e plate reader.
(§8) Semi-quantitative analysis was used for the test products AZD1775 (or the compound of the present invention), the control products fenoterol, propranolol and digoxin. The ratio of the peak area of the analyte to the internal standard was used as the concentration of the reference substance.

P-gp (human MDR1) = assay: as above; assay type: in vitro ADME, canine; conditions: dog; for Papp A→B at 150 min, 2 μM: A to B, read-out: Penetration rate A to B; for Papp B→A at 150 min, 2 μM: B to A, read-out: Penetration rate B to A
Excerpt: as §2, §3, §4, §5, §6, §7, §8

[3] = tested on: human colon cancer LoVo cell subcutaneous xenograft tumor; assay: In vivo pharmacodynamic study, LoVo subcutaneous xenograft tumor model; parameters: species or system BALB/c nude mice; conditions: 40 mg/kg twice daily, after administration for 16 days
Procedure: (1) In vivo pharmacodynamic study of the compounds on human colon cancer LoVo cell subcutaneous xenograft tumor BALB/c nude mouse model
Experimental method: The selected experimental animal (provided by Shanghai Xipu'er-bikai Experimental Animal Co., Ltd.) were BALB/c nude mice, 6-8 weeks old, weighing 18-22 grams.
Human colon cancer LoVo cells were cultured in monolayer in vitro. The culture conditions were Ham's F-12 medium containing 10% fetal bovine serum, 100 U/mL penicillin, 100 μg/mL streptomycin and 2 mM glutamine, 37° C., 5% CO2 culture. Conventional digestion treatment with trypsin-EDTA was performed twice a week for passaging. When the cell saturation was 80%-90%, the cells were collected, counted, and inoculated. 0.1 mL (10×10^6) LoVo cells were subcutaneously inoculated into the right back of each nude mouse. When the average tumor volume reached 213 mm^3, they were divided into groups and the drug administration was started. Dosage: 40 mg/kg twice daily. The experimental index is to investigate whether the tumor growth is inhibited, delayed or cured. The diameter of the tumor was measured with vernier calipers twice a week. The calculation formula of tumor volume is: V=0.5a×b^2, a and b represent the long and short diameters of the tumor, respectively.
The antitumor efficacy of the compound was evaluated by TGI (%) or relative tumor proliferation rate T/C (%). […]

Wee1 = biological target: T1, Wee1 (Homo sapiens, UniProt P30291); assay: In vitro enzymatic inhibitory activity, Wee1 kinase (Eurofins, [γ-33P]-ATP filter assay); assay type: biochemical; conditions: 10 μM [γ-33P]-ATP, 40 min at room temperature
T1 construct: purchased Eurofins
T1 sequence (P30291 whole entry): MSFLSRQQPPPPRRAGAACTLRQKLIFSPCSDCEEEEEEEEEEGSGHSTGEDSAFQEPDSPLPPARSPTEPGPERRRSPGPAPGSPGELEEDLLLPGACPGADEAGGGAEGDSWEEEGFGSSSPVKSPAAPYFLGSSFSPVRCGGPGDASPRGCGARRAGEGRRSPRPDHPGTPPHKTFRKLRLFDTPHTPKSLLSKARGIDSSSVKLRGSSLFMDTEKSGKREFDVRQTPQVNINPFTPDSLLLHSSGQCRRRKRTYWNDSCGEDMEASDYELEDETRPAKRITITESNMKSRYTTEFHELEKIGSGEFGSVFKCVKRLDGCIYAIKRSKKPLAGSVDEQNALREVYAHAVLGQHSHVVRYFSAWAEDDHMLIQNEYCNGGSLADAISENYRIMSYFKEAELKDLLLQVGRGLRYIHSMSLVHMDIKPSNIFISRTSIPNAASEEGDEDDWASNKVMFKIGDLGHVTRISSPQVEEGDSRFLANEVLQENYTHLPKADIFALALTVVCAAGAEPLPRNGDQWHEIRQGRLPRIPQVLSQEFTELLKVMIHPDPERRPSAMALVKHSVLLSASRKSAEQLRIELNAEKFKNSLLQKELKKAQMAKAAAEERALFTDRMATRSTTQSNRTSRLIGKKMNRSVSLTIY
Procedure: The experimental tests were conducted at Eurofins, and the results were provided by the company.
After adding the mixed solution of Mg^2+ and ATP, the reaction started and the reaction solution was incubated at room temperature for 40 min. 3% phosphate buffer was added to stop the reaction. 10 μL of the reaction solution was filtered on a continuous filter P30, washed three times with 75 mM phosphate buffer, once with methanol, and 5 minutes each time. After drying, the value was read by scintillation counting method.

[4] = tested on: human pancreatic cancer BxPC-3 subcutaneously transplanted tumor; assay: In vivo pharmacodynamic study, BxPC-3 subcutaneously transplanted tumor model; parameters: species or system BALB/c nude mice; conditions: BxPC-3 xenograft, 25 mg/kg once a day, after administration for 27 days
Procedure: (2) In vivo pharmacodynamic study of the compound on human pancreatic cancer BxPC-3 BALB/c nude mouse subcutaneously transplanted tumor model
Experimental method: The selected experimental animal was BALB/c nude nude mice, 6-8 weeks old, weighing 18-22 grams.
The 10th generation of BxPC-3 cells were cultured in monolayer in vitro. The culture conditions were RPMI 1640 medium (manufacturer: gibco, article number: 22400-089) containing 10% fetal bovine serum, 100 U/mL penicillin and 100 μg/mL streptomycin, 37° C. 5% CO2 culture, passage was performed for 4 times. The passaging method was conventional digestion treatment with trypsin-EDTA twice a week. When the cell saturation reached 80%-90%, the cells were digested with trypsin-EDTA, counted, and resuspended in PBS at a density of 5×10^7 cells/mL. Each animal was inoculated with 0.1 mL (5×10^6) BxPC-3 cells in the right back. When the average tumor volume reached 153 mm^3, they were randomly divided into groups according to the tumor volume and the drug administration was started. Dosage: 25 mg/kg, once a day.
as §1, with “rate. […]” for “rate.”

| clearance ([1]; 1 mg/kg intravenous, 10 mg/kg oral study, read-out: Clearance rate) [mL/min/kg] | AUC ([1]; 1 mg/kg intravenous, 10 mg/kg oral study, read-out: Concentration integral AUC) [µM·h] | half-life ([1]; 1 mg/kg intravenous, 10 mg/kg oral study, read-out: Half-life T1/2 (converted)) [h] | bioavailability ([1]; po, 10 mg/kg by gavage vs 1 mg/kg intravenous, read-out: Bioavailability F) [%] | efflux ratio at 150 min, 2 μM (P-gp (MDR1)) | Papp A→B at 150 min, 2 μM (P-gp (human MDR1)) [×10⁻⁶ cm/s] | Papp B→A at 150 min, 2 μM (P-gp (human MDR1)) [×10⁻⁶ cm/s] | IC50 (Wee1) [nM] | Structure (SMILES) | TGI (%) [2] [%] | TGI (%) [3] [%] | TGI (%) [4] [%] |
| --- | --- | --- | --- | --- | --- | --- | --- | --- | --- | --- | --- |
| 33.5 | 6.04 | 1.69 | 62.4 | 3.82 | 4.55 | 17.4 | 29 | CN1CCN(c2ccc(Nc3ncc4c(=O)n5n(c4n3)-c3cccc(n3)C(C)(O)CC/C=C\C5)cc2)CC1 (single isomer, unassigned) [Compound 1] | 93.38 | 84.74 | 73.3 |
|  |  |  |  |  | 2.83 | 29.3 |  | C=CCn1c(=O)c2cnc(Nc3ccc(N4CCN(C)CC4)cc3)nc2n1-c1cccc(C(C)(C)O)n1 [AZD1775, reference compound] | 66.43 | 26.73 | 24.3 |
